US12692268B2 (priority 2020, dated 2026)
Read-outs that look alike come from different tables or passages of the source. Blank lines part the entries; values can stand above or below the compound they belong to.

Columns and labels:
JNK3 [1] = target: T1, JNK3 (Homo sapiens, UniProt P53779); test: biochemical
JNK2 = JNK2 (Homo sapiens, UniProt P45984); test: Kinase panel screening, single dose 10 μM; format: biochemical; conditions: single dose concentration of 10 μM; read-out: inhibitory activity for JNK2
JNK2, sequence (P45984 whole entry, species assumed): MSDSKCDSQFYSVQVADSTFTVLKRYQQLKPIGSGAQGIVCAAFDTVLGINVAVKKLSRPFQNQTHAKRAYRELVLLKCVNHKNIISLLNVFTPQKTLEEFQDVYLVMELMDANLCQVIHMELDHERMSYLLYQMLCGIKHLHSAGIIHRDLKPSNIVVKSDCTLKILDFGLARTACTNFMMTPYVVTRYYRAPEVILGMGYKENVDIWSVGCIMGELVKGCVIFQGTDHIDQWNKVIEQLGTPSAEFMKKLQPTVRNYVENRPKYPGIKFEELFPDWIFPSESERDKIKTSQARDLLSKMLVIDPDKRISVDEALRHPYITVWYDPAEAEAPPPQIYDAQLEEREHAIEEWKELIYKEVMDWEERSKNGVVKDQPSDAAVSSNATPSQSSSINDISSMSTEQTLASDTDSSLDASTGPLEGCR

JNK3 [2] = target: T1, JNK3; test: Kinase panel screening, single dose 10 μM; format: biochemical; conditions: single dose concentration of 10 μM; read-out: inhibitory activity for JNK3
GSK-β = GSK-β (Homo sapiens, UniProt P49841); test: Kinase panel screening, single dose 10 μM; format: biochemical; conditions: single dose concentration of 10 μM; read-out: inhibitory activity for GSK-β
GSK-β, sequence (P49841 whole entry): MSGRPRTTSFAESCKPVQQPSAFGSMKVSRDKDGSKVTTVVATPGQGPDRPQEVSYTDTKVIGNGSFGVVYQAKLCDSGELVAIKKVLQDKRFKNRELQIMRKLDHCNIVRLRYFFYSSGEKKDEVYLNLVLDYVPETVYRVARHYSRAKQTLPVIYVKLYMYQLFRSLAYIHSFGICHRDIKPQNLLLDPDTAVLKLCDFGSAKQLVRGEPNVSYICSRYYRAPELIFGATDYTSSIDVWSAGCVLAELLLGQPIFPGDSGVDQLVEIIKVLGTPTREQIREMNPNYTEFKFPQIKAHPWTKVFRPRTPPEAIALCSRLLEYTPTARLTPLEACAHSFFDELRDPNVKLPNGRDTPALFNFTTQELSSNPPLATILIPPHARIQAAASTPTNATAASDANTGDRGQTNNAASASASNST

RIPK3 = RIPK3 (Homo sapiens, UniProt Q9Y572); test: Kinase panel screening, single dose 10 μM; format: biochemical; conditions: single dose concentration of 10 μM; read-out: inhibitory activity for RIPK3
RIPK3, sequence (Q9Y572 whole entry, species assumed): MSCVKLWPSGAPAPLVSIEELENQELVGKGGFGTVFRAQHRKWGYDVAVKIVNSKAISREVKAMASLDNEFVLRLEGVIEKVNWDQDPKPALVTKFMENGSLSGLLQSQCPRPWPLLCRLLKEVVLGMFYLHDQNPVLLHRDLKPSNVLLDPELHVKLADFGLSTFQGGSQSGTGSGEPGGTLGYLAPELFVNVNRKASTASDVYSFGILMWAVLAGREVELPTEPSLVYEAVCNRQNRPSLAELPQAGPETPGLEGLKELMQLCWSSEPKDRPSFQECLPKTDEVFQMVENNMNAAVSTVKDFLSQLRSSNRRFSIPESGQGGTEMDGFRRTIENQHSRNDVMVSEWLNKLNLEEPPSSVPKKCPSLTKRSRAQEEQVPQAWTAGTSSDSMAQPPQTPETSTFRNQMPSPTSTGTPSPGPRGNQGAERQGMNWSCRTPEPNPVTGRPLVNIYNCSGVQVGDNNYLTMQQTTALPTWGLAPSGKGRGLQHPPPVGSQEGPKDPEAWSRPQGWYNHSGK

T1 sequence (P53779 whole entry): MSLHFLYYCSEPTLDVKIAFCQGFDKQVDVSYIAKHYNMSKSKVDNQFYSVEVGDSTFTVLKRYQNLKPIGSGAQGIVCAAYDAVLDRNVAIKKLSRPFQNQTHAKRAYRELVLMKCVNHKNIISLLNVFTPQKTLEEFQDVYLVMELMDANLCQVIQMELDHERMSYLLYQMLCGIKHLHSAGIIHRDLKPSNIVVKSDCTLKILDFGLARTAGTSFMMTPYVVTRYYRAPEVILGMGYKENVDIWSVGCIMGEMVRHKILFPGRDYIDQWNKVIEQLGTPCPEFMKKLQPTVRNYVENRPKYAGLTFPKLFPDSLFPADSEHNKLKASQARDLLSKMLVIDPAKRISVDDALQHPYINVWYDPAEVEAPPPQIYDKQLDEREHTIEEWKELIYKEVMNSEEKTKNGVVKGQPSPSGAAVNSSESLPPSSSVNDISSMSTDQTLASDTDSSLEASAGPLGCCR

SMILES: O=C(C1CC1)N1CCC[C@H](Nc2nccc(-n3c(-c4ccc(Cl)c(Cl)c4)nc4c3CN(C(=O)N3CCC(O)CC3)C4)n2)C1 [Compound 16a, (S)-(1-(2-((1-(cyclopropanecarbonyl)piperidin-3-yl)amino)pyrimidin-4-yl)-2-(3,4-dichlorophenyl)-4,6-dihydropyrrolo[3,4-d]imidazol-5(1H)-yl)(4-hydroxypiperidin-1-yl)methanone]
- IC50 (JNK3 [1]): < 0.03 µM

- IC50 (JNK3 [1]; JNK3 enzyme activity, Table 1, read-out: IC50): < 0.03 µM
SMILES: NC(=O)N1Cc2nc(-c3ccc(Cl)c(Cl)c3)n(-c3ccnc(N[C@H]4CCCN(C(=O)C5CC5)C4)n3)c2C1 [Compound 16b, (S)-1-(2-((1-(cyclopropanecarbonyl)piperidin-3-yl)amino)pyrimidin-4-yl)-2-(3,4-dichlorophenyl)-4,6-dihydropyrrolo[3,4-d]imidazole-5(1H)-carboxamide]

- inhibition at 10 µM (JNK2): 100%
- inhibition at 10 µM (JNK3 [2]): 100%
- inhibition at 10 µM (GSK-β): 70%
- inhibition at 10 µM (RIPK3): 50%
SMILES: NC(=O)N1Cc2nc(-c3ccc(Cl)c(Cl)c3)n(-c3ccnc(N[C@@H]4CCN(C(=O)C5CC5)C4)n3)c2C1 [Compound 16c, (R)-1-(2-((1-(cyclopropanecarbonyl)pyrrolidin-3-yl)amino)pyrimidin-4-yl)-2-(3,4-dichlorophenyl)-4,6-dihydropyrrolo[3,4-d]imidazole-5(1H)-carboxamide]

- IC50 (JNK3 [1]; JNK3 enzyme activity, Table 2, read-out: IC50): 0.1 to 10 µM
SMILES: NC(=O)N1Cc2nc(-c3ccc4c(c3)OCO4)n(-c3ccnc(N[C@H]4CCCN(C(=O)C5CCC5)C4)n3)c2C1 [Compound 16m, (S)-2-(benzo[d][1,3]dioxol-5-yl)-1-(2-((1-(cyclobutanecarbonyl)piperidin-3-yl)amino)pyrimidin-4-yl)-4,6-dihydropyrrolo[3,4-d]imidazole-5(1H)-carboxamide]
